Reference: the supplement of paper PMC10307832

What follows are cell lines tested with COc1cc([C@@H]2c3cc4c(cc3[C@@H](O[C@@H]3O[C@@H]5CO[C@@H](C)O[C@H]5[C@H](O)[C@H]3O)[C@H]3COC(=O)[C@H]23)OCO4)cc(OC)c1O [Etoposide] + CC(=O)Nc1cccc(-n2c(=O)n(C3CC3)c(=O)c3c(Nc4ccc(I)cc4F)n(C)c(=O)c(C)c32)c1 [Trametinib] (partner 0.02 µM) (assay: relative viability (nuclei count vs DMSO), 5 days (fraction); higher = more cells survive). Conditions: first compound 1 µM.
How it was run: (§1)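 Lung cancer cell lines in 1536-well plates were dosed by pin tool the day after seeding, either with one drug alone or with a fixed anchor-drug dose plus five library-drug doses (not always all listed) in √10 steps. After 5 days, cells were fixed and their nuclei stained in one step (final 0.05% Triton X-100, 1% formaldehyde, 1 ug/ml Hoechst), then counted on 4× images. Relative viability is the nuclei count in treated wells divided by that in vehicle wells. Values are medians of duplicate plates.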

Cell Line	relative viability
RERF-LC-KJ	0.6

What follows are cell lines tested with COc1cc([C@@H]2c3cc4c(cc3[C@@H](O[C@@H]3O[C@@H]5CO[C@@H](C)O[C@H]5[C@H](O)[C@H]3O)[C@H]3COC(=O)[C@H]23)OCO4)cc(OC)c1O [Etoposide] + CCNC(=O)c1noc(-c2cc(C(C)C)c(O)cc2O)c1-c1ccc(CN2CCOCC2)cc1 [Luminespib] (partner 0.01 µM) in the same assay as above. Conditions: first compound 0.01 µM.
How it was run: as §1

Cell Line	relative viability
NCI-H1355	0.635
NCI-H322M	0.789
NCI-H1437	1.1
NCI-H1755	0.481
NCI-H2023	0.709
HCC-15	0.473
NCI-H1793	0.203
PC-3 [JPC-3]	0.67
EKVX	0.921
LC-2-ad	0.899
NCI-H1944	0.519
NCI-H1975	0.34
SK-LU-1	0.237
NCI-H358	0.243
NCI-H661	0.956
RERF-LC-KJ	1.16

Same assay, conditions: first compound 0.03162 µM

Cell Line	relative viability
NCI-H1355	0.765
NCI-H322M	0.846
NCI-H1437	1.07
NCI-H1755	0.415
NCI-H2023	0.829
HCC-15	0.303
NCI-H1793	0.184
PC-3 [JPC-3]	0.717
EKVX	0.885
LC-2-ad	0.833
NCI-H1944	0.936
NCI-H1975	0.199
SK-LU-1	0.243
NCI-H358	0.327
NCI-H661	0.901
RERF-LC-KJ	1.2

Same assay, conditions: first compound 0.1 µM

Cell Line	relative viability
NCI-H1355	0.403
NCI-H322M	0.553
NCI-H1437	1.14
NCI-H1755	0.45
NCI-H2023	0.708
HCC-15	0.366
PC-3 [JPC-3]	0.549
EKVX	0.444
LC-2-ad	0.711
NCI-H1944	0.597
NCI-H1975	0.125
SK-LU-1	0.189
NCI-H358	0.209
NCI-H661	0.898
RERF-LC-KJ	1.29

Same assay, conditions: first compound 0.3162 µM

Cell Line	relative viability
NCI-H1355	0.338
NCI-H322M	0.486
NCI-H1437	0.7
NCI-H1755	0.483
NCI-H2023	0.195
HCC-15	0.15
NCI-H1793	0.181
PC-3 [JPC-3]	0.581
EKVX	0.658
LC-2-ad	0.34
NCI-H1944	0.404
NCI-H1975	0.242
SK-LU-1	0.191
NCI-H358	0.179
NCI-H661	0.553
RERF-LC-KJ	0.93

Same assay, conditions: first compound 1 µM

Cell Line	relative viability
NCI-H1355	0.201
NCI-H322M	0.392
NCI-H1437	0.509
NCI-H1755	0.277
NCI-H2023	0.112
HCC-15	0.178
NCI-H1793	0.169
PC-3 [JPC-3]	0.371
EKVX	0.307
LC-2-ad	0.305
NCI-H1944	0.247
NCI-H1975	0.199
SK-LU-1	0.183
NCI-H358	0.095
NCI-H661	0.435
RERF-LC-KJ	0.724

Each cell line was assayed with COc1cc([C@@H]2c3cc4c(cc3[C@@H](O[C@@H]3O[C@@H]5CO[C@@H](C)O[C@H]5[C@H](O)[C@H]3O)[C@H]3COC(=O)[C@H]23)OCO4)cc(OC)c1O [Etoposide] + C[C@]1(O)C[C@@H](c2nc(-c3ccc4ccc(-c5ccccc5)nc4c3)c3c(N)nccn32)C1 [Linsitinib] (partner 1 µM) in the same assay as above. Conditions: first compound 0.01 µM.
How it was run: as §1

Cell Line	relative viability
NCI-H1355	0.732
NCI-H322M	0.902
NCI-H1437	0.993
NCI-H1755	0.985
NCI-H2023	0.617
HCC-15	0.892
NCI-H1793	0.692
PC-3 [JPC-3]	0.965
EKVX	0.979
LC-2-ad	0.809
NCI-H1944	1.45
NCI-H1975	0.973
SK-LU-1	1.03
NCI-H358	0.622
NCI-H661	0.591
RERF-LC-KJ	0.84

Same assay, conditions: first compound 0.03162 µM

Cell Line	relative viability
NCI-H1355	0.945
NCI-H322M	0.993
NCI-H1437	1.07
NCI-H1755	1.03
NCI-H2023	0.646
HCC-15	0.903
NCI-H1793	0.989
PC-3 [JPC-3]	0.991
EKVX	0.978
LC-2-ad	0.976
NCI-H1944	1.33
NCI-H1975	1.07
SK-LU-1	1.03
NCI-H358	0.792
NCI-H661	0.547
RERF-LC-KJ	0.895

Same assay, conditions: first compound 0.1 µM

Cell Line	relative viability
NCI-H1355	0.466
NCI-H322M	0.727
NCI-H1437	0.984
NCI-H1755	0.974
NCI-H2023	0.651
HCC-15	0.755
PC-3 [JPC-3]	0.952
EKVX	0.805
LC-2-ad	0.863
NCI-H1944	0.844
NCI-H1975	0.902
SK-LU-1	0.829
NCI-H358	0.561
NCI-H661	0.388
RERF-LC-KJ	0.866

Same assay, conditions: first compound 0.3162 µM

Cell Line	relative viability
NCI-H1355	0.585
NCI-H322M	0.845
NCI-H1437	0.566
NCI-H1755	0.951
NCI-H2023	0.444
HCC-15	0.396
NCI-H1793	0.716
PC-3 [JPC-3]	0.933
EKVX	0.712
LC-2-ad	0.624
NCI-H1944	0.733
NCI-H1975	0.67
SK-LU-1	0.401
NCI-H358	0.202
NCI-H661	0.398
RERF-LC-KJ	0.769

Same assay, conditions: first compound 1 µM

Cell Line	relative viability
NCI-H1355	0.334
NCI-H322M	0.565
NCI-H1437	0.262
NCI-H1755	0.858
NCI-H2023	0.171
HCC-15	0.16
NCI-H1793	0.429
PC-3 [JPC-3]	0.84
EKVX	0.399
LC-2-ad	0.248
NCI-H1944	0.392
NCI-H1975	0.345
SK-LU-1	0.281
NCI-H358	0.181
NCI-H661	0.235
RERF-LC-KJ	0.562
